# Experimental data taken from ChEMBL document CHEMBL4000237, “Synthesis and biological evaluation of thiazole derivatives as novel USP7 inhibitors” (Bioorg Med Chem Lett, 2017).
# Columns and labels:
# HCT-116 = experiment: Antiproliferative activity against human HCT116 cells expressing wild type p53 assessed as decrease in cell viability after 72 hrs by MTT assay; conditions: HCT-116, 72 h
# [1] = target: Ubiquitin carboxyl-terminal hydrolase 7 (Homo sapiens, UniProt Q93009); experiment: Inhibition of USP7 (unknown origin) using Ub-Rho as substrate preincubated for 30 mins followed by substrate addition and subsequent incubation in dark for 3 hrs by fluorescence assay
# Ubiquitin carboxyl-terminal hydrolase 7, sequence (Q93009 whole entry): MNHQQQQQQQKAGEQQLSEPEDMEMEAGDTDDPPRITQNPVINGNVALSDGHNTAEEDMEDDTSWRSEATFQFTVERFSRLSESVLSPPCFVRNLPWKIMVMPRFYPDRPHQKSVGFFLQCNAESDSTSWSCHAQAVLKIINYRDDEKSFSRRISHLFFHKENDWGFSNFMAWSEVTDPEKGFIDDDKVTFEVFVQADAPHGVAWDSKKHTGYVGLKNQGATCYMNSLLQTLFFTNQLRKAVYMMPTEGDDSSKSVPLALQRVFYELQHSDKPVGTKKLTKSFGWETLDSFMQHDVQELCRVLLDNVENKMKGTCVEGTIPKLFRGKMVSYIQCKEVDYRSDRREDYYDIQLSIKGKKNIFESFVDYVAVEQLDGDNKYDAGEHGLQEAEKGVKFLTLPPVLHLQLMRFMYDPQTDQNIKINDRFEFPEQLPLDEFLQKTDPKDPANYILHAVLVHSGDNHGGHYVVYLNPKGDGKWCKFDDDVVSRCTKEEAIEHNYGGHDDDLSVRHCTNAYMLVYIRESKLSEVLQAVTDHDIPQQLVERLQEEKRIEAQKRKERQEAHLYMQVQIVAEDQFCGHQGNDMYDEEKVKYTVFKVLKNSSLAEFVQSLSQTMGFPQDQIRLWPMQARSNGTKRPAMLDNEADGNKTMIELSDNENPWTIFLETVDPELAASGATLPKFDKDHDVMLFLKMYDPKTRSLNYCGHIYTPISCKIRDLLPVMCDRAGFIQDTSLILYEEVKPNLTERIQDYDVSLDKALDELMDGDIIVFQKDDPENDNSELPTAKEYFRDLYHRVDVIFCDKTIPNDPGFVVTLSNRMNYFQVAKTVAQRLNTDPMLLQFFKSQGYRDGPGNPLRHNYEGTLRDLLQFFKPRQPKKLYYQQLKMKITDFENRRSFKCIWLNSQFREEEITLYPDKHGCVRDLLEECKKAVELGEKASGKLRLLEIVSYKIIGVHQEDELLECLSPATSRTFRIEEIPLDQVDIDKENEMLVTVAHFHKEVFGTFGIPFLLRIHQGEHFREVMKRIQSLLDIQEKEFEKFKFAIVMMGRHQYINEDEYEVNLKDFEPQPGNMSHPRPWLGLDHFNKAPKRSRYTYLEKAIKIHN
# NCI-H1299 = experiment: Antiproliferative activity against p53 deficient human NCI-H1299 cells assessed as decrease in cell viability after 72 hrs by MTT assay; assay type: functional, cell-based; conditions: NCI-H1299, 72 h
# [2] = Antiproliferative activity against human […] cells expressing p53 mutant assessed as decrease in cell viability after 72 hrs by MTT assay; assay type: functional, cell-based
SMILES,IC50 (HCT-116) [µM],IC50 [1] [µM],IC50 (NCI-H1299) [µM],IC50 [2] [µM]
COc1cccc(Sc2sc(C(C)=O)nc2[N+](=O)[O-])c1,17.3,> 50,,
CC(=O)c1ncc(Sc2ccc(Cl)c(Cl)c2)s1,> 50,> 50,,
O=C(NCc1cccc(F)c1)c1nc([N+](=O)[O-])c(Sc2c(Cl)cncc2Cl)s1,6.36,1.35,3.68,6.11
O=C(Nc1ccccc1)c1nc([N+](=O)[O-])c(Sc2c(Cl)cncc2Cl)s1,12.4,40.5,,
O=C(NCc1ccccc1)c1nc([N+](=O)[O-])c(Sc2c(Cl)cncc2Cl)s1,13.5,4.21,,
CC(=O)c1nc([N+](=O)[O-])c(NCc2ccc(Cl)c(Cl)c2)s1,> 50,> 50,,
CC(OC(=O)c1ccccc1)c1nc([N+](=O)[O-])c(Sc2c(Cl)cncc2Cl)s1 (stereo unspecified),12,> 50,,
CC(=O)c1nc([N+](=O)[O-])c(Sc2c(Cl)cccc2Cl)s1,19.3,4.49,,
Cc1ccc(CNC(=O)c2nc([N+](=O)[O-])c(Sc3c(Cl)cncc3Cl)s2)cc1,6.64,3.65,,
CC(=O)c1nc([N+](=O)[O-])c(Sc2ccc(Cl)c(Cl)c2)s1,16.4,18,,
CC(=O)c1nc([N+](=O)[O-])c(Sc2c(Cl)cncc2Cl)s1,8.45,0.67,6.21,11
CC(=O)c1nc([N+](=O)[O-])c(Sc2cccc(Cl)c2Cl)s1,9.29,9.93,,
CC(=O)c1ncc(Sc2cccc(Cl)c2Cl)s1,> 50,> 50,,
COc1ccc(Sc2sc(C(C)=O)nc2[N+](=O)[O-])cc1OC,24,> 50,,
CCCC(=O)OC(C)c1nc([N+](=O)[O-])c(Sc2c(Cl)cncc2Cl)s1 (stereo unspecified),11.7,4.49,,
CC(=O)c1nc([N+](=O)[O-])c(Sc2ccc(Cl)cc2Cl)s1,12.5,16.8,,
CC(=O)c1nc([N+](=O)[O-])c(Sc2ccc(F)cc2F)s1,10.2,6.12,,
CC(=O)OC(C)c1nc([N+](=O)[O-])c(Sc2c(Cl)cncc2Cl)s1 (stereo unspecified),24.8,> 50,,
CC(O)c1nc([N+](=O)[O-])c(Sc2c(Cl)cncc2Cl)s1 (stereo unspecified),18.6,6.95,,
O=C(NCc1ccc(F)cc1)c1nc([N+](=O)[O-])c(Sc2c(Cl)cncc2Cl)s1,11.2,2.65,,
CC(NCc1ccccc1)c1nc([N+](=O)[O-])c(Sc2c(Cl)cncc2Cl)s1 (stereo unspecified),11.8,26.8,,
